Laboratory results from patent US12377080B2, “Allosteric EGFR inhibitors and methods of use thereof” (Dana-Farber Cancer Institute, Inc., priority 2019, dated 2025).

Experiments:
[1] = target: EGFR L858R/T790M (Homo sapiens (Human), UniProt P00533, L858R/T790M); assay: HTRF-based EGFR biochemical assay (L858R/T790M); details: 100 μM ATP
Method: (§1) EGFR biochemical activity measurements were carried out using the homogeneous time-resolved fluorescence (HTRF) assay (Cisbio). Inhibitors and DMSO normalizations were first dispensed to empty black low-volume 384-well plates (Corning) with D300 digital liquid dispenser (HP). All reactions were carried out at room temperature and solutions were added to plates with a Multidrop Combi Reagent Dispenser (ThermoFisher). The reaction mixture (10 μL final volume) contained 1 μM tyrosine kinase peptide-biotin substrate and mutant EGFR in a reaction buffer (50 mM HEPES pH 7,0, 5 mM MgCl2,1 mM MnCl2, 0.01% BSA, 2 mM TCEP, 0.1 mM NaVO4). Enzyme concentrations were adjusted to accommodate varying kinase activities (L858R 0.1 nM, L858R!T790M 0,02 nM). Enzyme reaction solution (2× concentrations, 5 μL) was added to 384-well plates containing compounds and incubated for 30 mins. Enzyme reactions were initiated with the addition of […] of ATP to a final concentration of 100 μM and reacted for 20 mins. Reactions were quenched with the addition of 10 μL of phospho-tyrosine antibody-Europium(III) cryptate (1-to-180 volume ratio) and Streptavidin-XL665 (46.7 nM) in EDTA-containing detection buffer, then incubated at room temperature for 1 hour, and read with a PHERAstar plate reader (excitation =337 nm, emission =620 nm and 665 nm).

[2] = target: EGFR L858R (Homo sapiens (Human), UniProt P00533, L858R); assay: HTRF-based EGFR biochemical assay (L858R); details: 100 μM ATP
Method: as §1

[3] = tested on: EGFR L858R/T790M mutant Ba/F3 Cells; assay: Ba/F3 cell proliferation (Cell Titer Glo) in combination with cetuximab; format: cell-based, murine; details: 72 hours
Source text: The EGFR mutant L858R, Del E746_A750, L858R/T790M, Del E746_A750/T790M, L858R/T790MIC797S, and DellT790MIC797S Ba/F3 cells have been previously described (Zhou, W., et al, Nature 462, 2009, 1070-1074). All cell lines were maintained in RPM I 1640 (Cellgro; Mediatech Inc., Herndon, CA) supplemented with 10% FBS, 100 units/mL penicillin, 100 units/mL streptomycin. The EGFR 1941 R mutation was introduced via site directed mutagenesis using the Quick Change Site-Directed Mutagenesis kit (Stratagene; La Jolla, CA) according to the manufacturer's instructions. All constructs were confirmed by DNA sequencing. The constructs were shuttled into the retroviral vector JP1540 using the Cre-recombination system (Agilent Technologies, Santa Clara, CA). Ba/F3 cells were then infected with retrovirus per standard protocols, as described previously (Zhou, et al, Nature 2009). Stable clones were obtained by selection in puromycin (2 μg/ml),
Growth and inhibition of growth was assessed by the Cell Titer Glo assay (Promega, Madison, WI) and was performed according to the manufacturer's instructions. The Cell Titer Glo assay is a luminescence-based method used to determine the number of viable cells based on quantitation of the ATP present, which is directly proportional to the amount of metabolically active cells present. Ba/F3 cells of different EGFR genotypes were exposed to compounds as a single agent or in combination with […] for 72 hours and the number of cells used per experiment was determined empirically as has been previously established (Zhou, et al., Nature 2009). All experimental points were set up in triplicates in 384-well plates and all experiments were repeated at least three times. […] The curves were fitted using a non-linear regression model with a sigmoidal dose response.

[4] = tested on: NSCLC that have developed resistance to gefitinib or erlotinib; details: patients with NSCLC resistant to gefitinib or erlotinib; cited from earlier work

EGFR L858R/T790M, sequence (P00533 25-1210 T790M/L858R): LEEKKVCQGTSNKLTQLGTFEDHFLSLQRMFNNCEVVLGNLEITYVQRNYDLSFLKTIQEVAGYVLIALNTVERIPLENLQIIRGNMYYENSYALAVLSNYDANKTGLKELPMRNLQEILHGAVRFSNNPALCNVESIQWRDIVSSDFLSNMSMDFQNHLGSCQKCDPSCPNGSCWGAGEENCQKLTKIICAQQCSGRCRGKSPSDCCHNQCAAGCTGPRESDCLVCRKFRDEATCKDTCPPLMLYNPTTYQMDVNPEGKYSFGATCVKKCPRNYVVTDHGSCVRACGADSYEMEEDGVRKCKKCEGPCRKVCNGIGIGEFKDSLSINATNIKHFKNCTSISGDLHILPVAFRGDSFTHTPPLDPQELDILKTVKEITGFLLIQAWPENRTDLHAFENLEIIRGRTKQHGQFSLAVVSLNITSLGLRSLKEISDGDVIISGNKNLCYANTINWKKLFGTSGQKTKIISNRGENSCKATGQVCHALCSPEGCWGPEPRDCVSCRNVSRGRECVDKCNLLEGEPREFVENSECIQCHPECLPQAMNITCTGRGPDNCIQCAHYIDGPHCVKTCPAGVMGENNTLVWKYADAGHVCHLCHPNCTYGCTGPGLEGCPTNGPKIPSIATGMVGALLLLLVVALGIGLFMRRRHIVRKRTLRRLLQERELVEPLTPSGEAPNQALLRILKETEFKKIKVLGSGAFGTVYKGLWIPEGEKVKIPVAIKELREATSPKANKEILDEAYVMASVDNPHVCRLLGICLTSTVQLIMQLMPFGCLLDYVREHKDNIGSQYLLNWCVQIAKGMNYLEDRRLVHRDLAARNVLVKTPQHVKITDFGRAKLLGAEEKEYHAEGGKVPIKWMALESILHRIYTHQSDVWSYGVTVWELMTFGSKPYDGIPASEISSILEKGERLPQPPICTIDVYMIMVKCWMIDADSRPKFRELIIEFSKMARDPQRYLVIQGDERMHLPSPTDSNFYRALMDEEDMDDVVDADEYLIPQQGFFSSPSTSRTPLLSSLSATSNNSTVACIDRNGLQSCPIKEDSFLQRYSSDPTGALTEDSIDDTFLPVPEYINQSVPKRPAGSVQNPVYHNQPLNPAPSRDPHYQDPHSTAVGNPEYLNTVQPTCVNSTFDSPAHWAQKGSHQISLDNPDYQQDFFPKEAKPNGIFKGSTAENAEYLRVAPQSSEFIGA
EGFR L858R, sequence (P00533 25-1210 L858R): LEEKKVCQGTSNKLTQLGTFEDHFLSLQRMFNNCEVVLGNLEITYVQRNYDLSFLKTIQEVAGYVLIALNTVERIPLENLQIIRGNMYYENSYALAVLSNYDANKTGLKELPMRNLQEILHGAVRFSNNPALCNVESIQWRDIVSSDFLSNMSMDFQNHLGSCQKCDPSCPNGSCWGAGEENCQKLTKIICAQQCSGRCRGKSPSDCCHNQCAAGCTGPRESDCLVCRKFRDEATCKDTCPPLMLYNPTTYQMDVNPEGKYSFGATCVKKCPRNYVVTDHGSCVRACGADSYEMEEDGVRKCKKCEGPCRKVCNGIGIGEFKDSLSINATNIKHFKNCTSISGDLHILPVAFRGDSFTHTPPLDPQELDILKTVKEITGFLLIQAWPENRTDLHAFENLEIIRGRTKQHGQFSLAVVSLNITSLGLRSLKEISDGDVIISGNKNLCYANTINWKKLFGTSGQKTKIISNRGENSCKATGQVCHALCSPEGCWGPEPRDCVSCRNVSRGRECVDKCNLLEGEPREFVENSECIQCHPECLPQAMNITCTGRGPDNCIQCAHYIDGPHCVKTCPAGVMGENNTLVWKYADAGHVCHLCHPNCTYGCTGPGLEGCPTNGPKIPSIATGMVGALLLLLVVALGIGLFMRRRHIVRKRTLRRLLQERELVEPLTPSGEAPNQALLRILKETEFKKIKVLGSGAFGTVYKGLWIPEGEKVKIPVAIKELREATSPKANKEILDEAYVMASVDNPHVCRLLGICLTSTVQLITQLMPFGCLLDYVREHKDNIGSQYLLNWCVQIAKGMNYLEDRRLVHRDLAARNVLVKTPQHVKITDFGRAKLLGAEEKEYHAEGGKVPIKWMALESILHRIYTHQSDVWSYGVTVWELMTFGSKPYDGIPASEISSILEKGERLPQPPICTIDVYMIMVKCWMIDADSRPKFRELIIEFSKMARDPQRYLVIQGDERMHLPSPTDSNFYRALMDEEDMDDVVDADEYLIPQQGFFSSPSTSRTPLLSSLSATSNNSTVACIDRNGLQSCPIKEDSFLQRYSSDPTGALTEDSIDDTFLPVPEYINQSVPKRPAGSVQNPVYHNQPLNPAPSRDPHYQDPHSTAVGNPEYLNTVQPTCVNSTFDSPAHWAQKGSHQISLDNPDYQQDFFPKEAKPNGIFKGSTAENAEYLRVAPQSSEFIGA

SMILES | IC50 [1] | IC50 ([2]; cells printed in μM) | IC50 [3] | IC50 [2] | RR (response rate) [4]
CN1CCN(c2ccc(-c3ccc4c(n3)C(=O)N(C(C(=O)Nc3nccs3)c3cccc(F)c3)C4)cc2)CC1 (stereo not shown) [Compound 14, 2-(3-fluorophenyl)-2-(2-(4-(4-methylpiperazin-1-yl)phenyl)-7-oxo-5,7-dihydro-6H-pyrrolo-[3,4-b]pyridin-6-yl)-N-(thiazol-2-yl)acetamide] | 4 nM | – | 120 nM | 0.032 µM | –
CN1CCN(c2ccc(-c3ccc4c(n3)C(=O)N(C(C(=O)Nc3nccs3)c3cccc(F)c3)C4)cn2)CC1 (stereo not shown) [Compound 15, 2-(3-fluorophenyl)-2-(2-(6-(4-methylpiperazin-1-yl)pyridin-3-yl)-7-oxo-5,7-dihydro-6H-pyrrolo[3,4-b]pyridin-6-yl)-N-(thiazol-2-yl)acetamide] | 6 nM | – | 330 nM | 0.083 µM | –
CN1CCC(c2ccc(-c3ccc4c(n3)C(=O)N(C(C(=O)Nc3nccs3)c3cccc(F)c3)C4)cc2)C1 (stereo not shown) [Compound 16, 2-(3-fluorophenyl)-2-(2-(4-(1-methylpyrrolidin-3-yl)phenyl)-7-oxo-5,7-dihydro-6H-pyrrolo-[3,4-b]pyridin-6-yl)-N-(thiazol-2-yl)acetamide] | 1 nM | – | 40 nM | 0.006 µM | –
CN1CCC(c2ccc(-c3ccc4c(n3)C(=O)N(C(C(=O)Nc3nccs3)c3cccc(F)c3)C4)cn2)CC1 (stereo not shown) [Compound 17, 2-(3-fluorophenyl)-2-(2-(6-(1-methylpiperidin-4-yl)pyridin-3-yl)-7-oxo-5,7-dihydro-6H-pyrrolo[3,4-b]pyridin-6-yl)-N-(thiazol-2-yl)acetamide] | 7 nM | – | 140 nM | 0.036 µM | –
CN1CCC(c2ccc(-c3ccc4c(n3)C(=O)N(C(C(=O)Nc3nccs3)c3cccc(F)c3)C4)c(F)c2)CC1 (stereo not shown) [Compound 19, 2-(2-(2-fluoro-4-(1-methyl-piperidin-4-yl)phenyl)-7-oxo-5,7-dihydro-6H-pyrrolo[3,4-b]pyridin-6-yl)-2-(3-fluoro-phenyl)-N-(thiazol-2-yl)-acetamide] | 0.7 nM | – | 30 nM | 0.004 µM | –
CN1CCC(c2ccc(-c3ccc4c(n3)C(=O)N(C(C(=O)Nc3nccs3)c3cccc(F)c3)C4)cc2F)CC1 (stereo not shown) [Compound 20, 2-(2-(3-fluoro-4-(1-methyl-piperidin-4-yl)phenyl)-7-oxo-5,7-dihydro-6H-pyrrolo[3,4-b]pyridin-6-yl)-2-(3-fluoro-phenyl)-N-(thiazol-2-yl)-acetamide] | 1 nM | – | 20 nM | 0.005 µM | –
CN(C)C/C=C/C(=O)Nc1cc2c(Nc3ccc(F)c(Cl)c3)ncnc2cc1O[C@H]1CCOC1 [afatinib] | – | – | – | – | less than 10%

Continued, in another order:

IC50 [1] | IC50 ([2]; cells printed in μM) | IC50 [3] | IC50 [2] | SMILES | RR (response rate) [4]
41 nM | > 1 µM | 1910 nM | – | CN1CCN(c2ccc(-c3cnc4c(c3)C(=O)N(C(C(=O)Nc3ccccn3)c3cccc(F)c3)C4)cn2)CC1 (stereo not shown) [Compound 12, 2-(3-fluorophenyl)-2-(3-(6-(4-methylpiperazin-1-yl)pyridin-3-yl)-5-oxo-5,7-dihydro-6H-pyrrolo[3,4-b]pyridin-6-yl)-N-(pyridin-2-yl)acetamide] | –
1 nM | – | 20 nM | 0.007 µM | CN1CCC(c2ccc(-c3ccc4c(n3)C(=O)N(C(C(=O)Nc3nccs3)c3cccc(F)c3)C4)cc2)CC1 (stereo not shown) [Compound 13, 2-(3-fluorophenyl)-2-(2-(4-(1-methylpiperidin-4-yl)phenyl)-7-oxo-5,7-dihydro-6H-pyrrolo-[3,4-b]pyridin-6-yl)-N-(thiazol-2-yl)acetamide] | –
9 nM | – | 220 nM | 0.126 µM | CN1CCC(c2ccc(-c3cnc4c(c3)C(=O)N(C(C(=O)Nc3nccs3)c3cccc(F)c3)C4)cn2)CC1 (stereo not shown) [Compound 18, 2-(3-fluorophenyl)-2-(3-(6-(1-methylpiperidin-4-yl)pyridin-3-yl)-5-oxo-5,7-dihydro-6H-pyrrolo[3,4-b]pyridin-6-yl)-N-(thiazol-2-yl)acetamide] | –
0.4 nM | – | 10 nM | 0.004 µM | CN1CCC(c2ccc(-c3ccc4c(n3)C(=O)N(C(C(=O)Nc3ccccn3)c3cc(F)ccc3O)C4)cc2)CC1 (stereo not shown) [Compound 21, 2-(5-fluoro-2-hydroxyphenyl)-2-(2-(4-(1-methylpiperidin-4-yl)phenyl)-7-oxo-5,7-dihydro-6H-pyrrolo[3,4-b]pyridin-6-yl)-N-(pyridin-2-yl)acetamide] | –
1 nM | – | 30 nM | 0.005 µM | CN1CCC(c2ccc(-c3cnc4c(c3)C(=O)N(C(C(=O)Nc3ccccn3)c3cc(F)ccc3O)C4)cc2)CC1 (stereo not shown) [Compound 22, 2-(5-fluoro-2-hydroxyphenyl)-2-(3-(4-(1-methylpiperidin-4-yl)phenyl)-5-oxo-5,7-dihydro-6H-pyrrolo[3,4-b]pyridin-6-yl)-N-(pyridin-2-yl)acetamide] | –
